In assay [1] the target is BRD4(BD1) (Homo sapiens (Human), UniProt O60885). The assay can be described thus: In vitro enzyme inhibition assay (BRD4 AlphaScreen, H4-tetraacetyl peptide). Type of assay: binding. The note with it: BRD4(BD1) 2 nM, peptide 15 nM. Here is the method:
Determination of the IC50 for the heterocyclic derivative BRD4 inhibitors disclosed herein was performed as follows. His-tagged […] was cloned, expressed and purified to homogeneity. Filipakopoulos et al., 468 Nature 1067 (2010). BRD4 binding and inhibition was assessed by monitoring the interaction of biotinylated H4-tetraacetyl peptide (AnaSpec, H4K5/8/12/16(Ac), biotin—labeled) with the target using the AlphaScreen technology (Life Technologies). In a 384-well ProxiPlate BRD4(BD1) (2 nM final) was combined with peptide (15 nM final) in 50 mM HEPES (pH 7.3), 10 mM NaCl, 0.25 mM TCEP, 0.1% (w/v) BSA, and 0.005% (w/v) Brij-35 either in the presence of DMSO (final 0.4% DMSO) or compound dilution series in DMSO. After 20 min incubation at RT, Alpha streptavidin donor beads and Nickel Chelate acceptor beads were added to a final concentration of 5 μg/mL. After 2 hr of equilibration, plates were read on an Envision instrument and the IC50 was calculated using a four parameter non-linear curve fit.
The ability of the compounds disclosed herein to inhibit BRD4 activity was quantified and the respective IC50 value was determined.
Background: Bead proximity is the source of the signal in Alpha formats.

Assay [2] deals with Raji, human Burkitts lymphoma cells. The assay can be described thus: Cell-MTS cellular proliferation assay, Raji. Type of assay: cell-based. Conditions: Homo sapiens, 168 hr incubation. The method, then: (§1) A colorimetric cellular proliferation assay (Cell-MTS assay) was performed to assess the ability of the heterocyclic derivative […] inhibitors disclosed herein to effect the proliferation of established cancer cell lines.
(§2) The Cell-MTS assay is a 7-day plate-based colorimetric assay which quantifies the amount of newly generated NADH in the presence or absence of test compound. The NADH level is used for the quantification of cancer cell proliferation.
(§3) Established cancer cell lines with a variety of driving mutations were obtained from American Type Culture Collection (ATCC) and routinely passaged according to ATCC protocols. For routine assay, these cells were seeded at densities which enabled ˜90% confluence after 7 days of culture. Raji, human Burkitts lymphoma cells, (cMYC) were seeded at 15,000 cells per 96-well. HL-60, human proleukemia cells, (NRAS, p16, p53, c-Myc amplified) were seeded at 5,000 cells per 96-well. NCI-H460, human non-small cell lung cancer cells. (KRAS, PIK3CA, STLK11, p16) were seeded at 3,000 cells per 96-well. 24 hr after plating, cells received an 11 point dilution of test compound with final concentration ranges from 100 µM to 2.0 nM. Cells were incubated in the presence of compound for 168 hr at 37° C., and 5% CO2. At the end of this incubation period, 80 µL of media is removed and 20 µL of CellTiter 96® AQueous Non-Radioactive Cell Proliferation Assay solution (Promega) was added. The cells were incubated until the OD490 was >0.6. IC50 values were calculated using the IDBS XLfit software package and include background subtracted OD490 values and normalization to DMSO controls. Cellular proliferation IC50 values were uploaded and archived using the Chem Biography Platform. Table 3 provides the results of the in vitro enzyme inhibition assay experiments and the in vitro cell-based assay experiments performed with the compounds disclosed herein: […]

Assay [3] has as its system HL-60, human proleukemia cells. The assay can be described thus: Cell-MTS cellular proliferation assay, HL-60. Type of assay: cell-based. The note with it: Homo sapiens, HL-60 cells, 168 hr incubation. Here is the method: as §1, §2, §3
For orientation: Tetrazolium assays rely on reduction of a dye to a coloured formazan, in cell work by metabolically active cells.

The test system of assay [4] is NCI-H460, human non-small cell lung cancer cells. The assay can be described thus: Cell-MTS cellular proliferation assay, NCI-H460. Type of assay: cell-based. Conditions: Homo sapiens, 168 hr incubation. Here is the method: as §1, §2, §3

The results in this text go back to US10807982B2, “Bromodomain inhibitors” (CELGENE QUANTICEL RESEARCH, INC., priority 2015, dated 2020).

Each structure is given as a SMILES string.

The term IC50 denotes the concentration that inhibits the measured activity by half. With `COc1cc2c(cc1-c1cn(C)c(=O)c3ccccc13)S(=O)(=O)N(C)C2` [Example 4, 4-(5-methoxy-2-methyl-1,1-dioxo-3H-1,2-benzothiazol-6-yl)-2-methylisoquinolin-1-one], the IC50 in assay [1] is at most 500 nM; in assay [2], 500 to 5000 nM; in assay [3], at most 500 nM; in assay [4] it was 500 to 5000 nM.

Regarding `Cc1cc(-c2cc3c(cc2OCC2CC2)CN(C)S3(=O)=O)cn(C)c1=O` [Example 5, 5-[5-(cyclopropylmethoxy)-2-methyl-1,1-dioxo-3H-1,2-benzothiazol-6-yl]-1,3-dimethylpyridin-2-one], the IC50 in assay [1] is at most 500 nM; in assay [2], 500 to 5000 nM; in assay [3], at most 500 nM; in assay [4] it was above 5000 nM.

As to `CN1Cc2cc(OCC3CC3)c(-c3cn(C)c(=O)c4ccccc34)cc2S1(=O)=O` [Example 6, 4-[5-(cyclopropyhnethoxy)-2-methyl-1,1-dioxo-3H-1,2-benzothiazol-6-yl]-2-methylisoquinolin-1-one], the half-maximal inhibitory concentration (IC50) in assay [1] is at most 500 nM; in assay [2] it was 500 to 5000 nM; in assay [3] it was at most 500 nM; in assay [4], 500 to 5000 nM.

For `CCN1Cc2cc(OCC3CC3)c(-c3cn(C)c(=O)c4ccccc34)cc2S1(=O)=O` [Example 7, 4-[5-(cyclopropylmethoxy)-2-ethyl-1,1-dioxo-3H-1,2-benzothiazol-6-yl]-2-methylisoquinolin-1-one], the IC50 in assay [1] is at most 500 nM; in assay [2] it was at most 500 nM; in assay [3], at most 500 nM; in assay [4], 500 to 5000 nM.

On to `CCN1Cc2cc(OCC3CC3)c(-c3cc(C)c(=O)n(C)c3)cc2S1(=O)=O` [Example 8, 5-[5-(cyclopropylmethoxy)-2-ethyl-1,1-dioxo-3H-1,2-benzothiazol-6-yl]-1,3-dimethylpyridin-2-one], for which the IC50 in assay [1] is at most 500 nM; in assay [2], 500 to 5000 nM; in assay [3], at most 500 nM; in assay [4], 500 to 5000 nM.

Take `Cc1cc(-c2cc3c(cc2OCC(F)(F)F)CN(C)S3(=O)=O)cn(C)c1=O` [Example 9, 1,3-dimethyl-5-[2-methyl-1,1-dioxo-5-(2,2,2-trifluoroethoxy)-3H-1,2-benzothiazol-6-yl]pyridine-2-one]: the concentration for half-maximal inhibition (IC50) in assay [1] is at most 500 nM; in assay [2], 500 to 5000 nM; in assay [3] it was at most 500 nM; in assay [4], above 5000 nM.

For `CN1Cc2cc(OCC(F)(F)F)c(-c3cn(C)c(=O)c4ccccc34)cc2S1(=O)=O` [Example 10, 2-methyl-4-[2-methyl-1,1-dioxo-5-(2,2,2-trifluoroethoxy)-3H-1,2-benzothiazol-6-yl]isoquinolin-1-one], the half-inhibitory concentration (IC50) is at most 500 nM in assay [1], 500 to 5000 nM in assay [2], at most 500 nM in assay [3] and 500 to 5000 nM in assay [4].

Turning to `Cc1cc(-c2cc3c(cc2Oc2ccc(F)cc2F)CN(C)S3(=O)=O)cn(C)c1=O` [Example 11, 5-[5-(2,4-difluorophenoxy)-2-methyl-1,1-dioxo-3H-1,2-benzothiazol-6-yl]-1,3-dimethylpyridin-2-one], the IC50 is at most 500 nM in assay [1], at most 500 nM in assay [2], at most 500 nM in assay [3] and above 5000 nM in assay [4].

For `Cn1cc(-c2cc3c(cc2OCC2CC2)CCN3S(C)(=O)=O)c2ccccc2c1=O` [Example 13, 4-[5-(cyclopropylmethoxy)-1-methylsulfonyl-2,3-dihydroindol-6-yl]-2-methylisoquinolin-1-one], the half-maximal inhibitory concentration (IC50) in assay [1] was at most 500 nM; in assay [2], at most 500 nM; in assay [3], at most 500 nM; in assay [4], 500 to 5000 nM.

Take `CCS(=O)(=O)N1CCc2cc(OCC3CC3)c(-c3cn(C)c(=O)c4ccccc34)cc21` [Example 14, 4-[5-(cyclopropylmethoxy)-1-ethylsulfonyl-2,3-dihydroindol-6-yl]-2-methylisoquinolin-1-one]: the IC50 in assay [1] is at most 500 nM; in assay [2], at most 500 nM; in assay [3], at most 500 nM; in assay [4], 500 to 5000 nM.

In the case of `Cc1cc(-c2cc3c(cc2OCC2CC2)CCN3S(C)(=O)=O)cn(C)c1=O` [Example 15, 5-[5-(cyclopropylmethoxy)-1-methylsulfonyl-2,3-dihydroindol-6-yl]-1,3-dimethylpyridin-2-one], the half-inhibitory concentration (IC50) in assay [1] was at most 500 nM; in assay [2], at most 500 nM; in assay [3] it was at most 500 nM; in assay [4], above 5000 nM.

As to `CCS(=O)(=O)N1CCc2cc(OCC3CC3)c(-c3cc(C)c(=O)n(C)c3)cc21` [Example 16, 5-[5-(cyclopropylmethoxy)-1-ethylsulfonyl-2,3-dihydroindol-6-yl]-1,3-dimethylpyridin-2-one], the 50% inhibitory concentration (IC50) in assay [1] is at most 500 nM; in assay [2], at most 500 nM; in assay [3], at most 500 nM; in assay [4], above 5000 nM.

In the case of `Cn1cc(-c2cc(NS(C)(=O)=O)c3ccn(Cc4ccccc4)c3c2)c2ccccc2c1=O` [Example 17, N-[1-benzyl-6-(2-methyl-1-oxoisoquinolin-4-yl)indol-4-yl]methanesulfonamide], the IC50 in assay [1] is at most 500 nM; in assay [2] it was at most 500 nM; in assay [3], at most 500 nM; in assay [4] it was 500 to 5000 nM.

In the case of `Cc1cc(-c2cc(NS(C)(=O)=O)c3ccn(Cc4ccccc4)c3c2)cn(C)c1=O` [Example 18, N-[1-benzyl-6-(1,5-dimethyl-6-oxopyridin-3-yl)indol-4-yl]methanesulfonamide], the IC50 in assay [1] is at most 500 nM; in assay [2], at most 500 nM; in assay [3], at most 500 nM; in assay [4], 500 to 5000 nM.

Regarding `Cc1cc(-c2cc(NS(C)(=O)=O)c3c(c2)N(Cc2ccccc2)CC3)cn(C)c1=O` [Example 19, N-[1-benzyl-6-(1,5-dimethyl-6-oxopyridin-3-yl)-2,3-dihydroindol-4-yl]methanesulfonamide], the concentration for half-maximal inhibition (IC50) in assay [1] is at most 500 nM; in assay [2], at most 500 nM; in assay [3], at most 500 nM; in assay [4], 500 to 5000 nM.

On to `Cn1cc(-c2cc(NS(C)(=O)=O)c3c(c2)N(Cc2ccccc2)CC3)c2ccccc2c1=O` [Example 20, N-[1-benzyl-6-(2-methyl-1-oxoisoquinolin-4-yl)-2,3-dihydroindol-4-yl]methanesulfonamide], for which the IC50 in assay [1] is at most 500 nM; in assay [2] it was at most 500 nM; in assay [3] it was at most 500 nM; in assay [4], 500 to 5000 nM.

Turning to `Cc1cc(-c2cc(S(C)(=O)=O)cc3cc(C4CC4)oc23)cn(C)c1=O` [Example 23, 5-(2-cyclopropyl-5-methylsulfonyl-1-benzofuran-7-yl)-1,3-dimethylpyridin-2-one], the 50% inhibitory concentration (IC50) in assay [1] is at most 500 nM; in assay [2], 500 to 5000 nM; in assay [3] it was at most 500 nM; in assay [4], above 5000 nM.

As to `Cn1cc(-c2cc(S(C)(=O)=O)cc3cc(C4CC4)oc23)c2ccccc2c1=O` [Example 24, 4-(2-cyclopropyl-5-methylsulfonyl-1-benzofuran-7-yl)-2-methylisoquinolin-1-one], the concentration for half-maximal inhibition (IC50) in assay [1] was at most 500 nM; in assay [2] it was at most 500 nM; in assay [3] it was at most 500 nM; in assay [4], 500 to 5000 nM.

Regarding `Cn1cc(-c2cc(S(C)(=O)=O)cc3cc(-c4ccccc4)oc23)c2ccccc2c1=O` [Example 26, 2-methyl-4-(5-methylsulfonyl-2-phenyl-1-benzofuran-7-yl)isoquinolin-1-one], the concentration for half-maximal inhibition (IC50) in assay [1] was at most 500 nM; in assay [2], at most 500 nM; in assay [3], at most 500 nM; in assay [4], 500 to 5000 nM.

`CCS(=O)(=O)Nc1cc(-c2cc(C)c(=O)n(C)c2)cc2c1nnn2Cc1ccccc1` [Example 27, N-[1-benzyl-6-(1,5-dimethyl-6-oxopyridin-3-yl)benzotriazol-4-yl]ethanesulfonamide]: the half-maximal inhibitory concentration (IC50) in assay [1] is at most 500 nM; in assay [2], at most 500 nM; in assay [3], at most 500 nM; in assay [4] it was 500 to 5000 nM.
